From US9493489B2, “Boron-containing small molecules as anti-protozoal agents” (Anacor Pharmaceuticals, Inc., priority 2008, dated 2016)
Blank lines part the entries; values can stand above or below the compound they belong to.

How the values were obtained:
[1] = system: LAB 110 EATRO strain of T. b. brucei; assay: Acute Murine Model A; type: in vivo, Swiss Webster mice; details: for T. brucei Minimum Effective Dose: bid × 4 days; for mice parasite free: ip, BID for 4 days
Experimental: Female Swiss Webster mice were inoculated with 250,000 parasites of the LAB 110 EATRO strain of T. b. brucei. 24 hrs post-infection, treatment was initiated BID for 4 days with 20 mg/kg/dose (40 mg/kg/day) intraperitoneally (IP) or orally (PO), 5 mg/kg BID or 10 mg/kg BID orally (PO). N=3 mice/group. Mice were monitored for 30 days for survival. Pentamidine at 2 mg/kg IP was used as the positive control. After 10 days, 0% of the untreated mice were parasite free. After 10 days, 100% of mice treated with 20 mg/kg, ip, BID of 6-(4-chlorophenylsulfinyl)benzo[c][1,2]oxaborol-1(3H)-ol were parasite free. After 30 days, 100% of mice treated with 10 mg/kg, ip, BID of N-(1-hydroxy-1,3-dihydrobenzo[c][1,2]oxaborol-6-yl)-2-(trifluoromethyl)benzamide were parasite free.

[2] = system: TREU 667 strain of T. b. brucei; assay: Chronic CNS Model; type: in vivo, mice
Experimental: Mice were infected with 10,000 parasites of the TREU 667 strain of T. b. brucei. Twenty one days post-infection mice were treated with 50 mg/kg of the compound BID for 7 days intraperitoneally (IP). Positive control mice were treated with Berenil on Day 4 post-infection. Negative control mice were treated with Berenil on Day 21. Since Berenil is not able to penetrate the CNS, mice treated at Day 21 are not able to cure the infection. Starting 1 week after the end of treatment, mice are monitored for parasitemia and sacrificed if parasites are detected in the blood. Mice that survive 6 months are considered “cured.”

[3] = system: L. infantum MHOM/MA(BE)/67; assay: Leishmania infantum macrophage screening assay; type: cell-based; details: 120 h, primary screen, reference drugs, primary peritoneal mouse macrophages, 5 days incubation
Experimental: Parasite and cell cultures. Two Leishmania species (L. infantum MHOM/MA(BE)/67 and L. donovani MHOM/ET/67/L82) were used. The strains were maintained in the Golden Hamster (Mesocricetus auratus). Amastigotes were collected from the spleen of an infected donor hamster using three centrifugation purification steps (300 rpm, keeping the supernatant, 2200 rpm, keeping the supernatants and 3500 rpm, keeping the pellet) and spleen parasite burdens were assessed using the Stauber technique (Stauber L A., Exp Parasitol. 18: 1-11 (1966)). Primary peritoneal mouse macrophages were used as host cell and were collected 2 days after peritoneal stimulation with a 2% potato starch suspension. […]
Assays were performed in 96-well microtiter plates, each well contained 10 μl of the compound dilutions together with 190 μl of macrophage/parasite inoculum (3×10^3 cells+4.5×10^5 parasites/well). […] After 5 days incubation, parasite burdens (mean number of amastigotes/macrophage) were microscopically assessed after staining the cells with a 10% Giemsa solution. The results were expressed as % reduction in parasite burden compared to untreated control wells and an IC50 (50% inhibitory concentration) was calculated. […]
Leishmania infantum MHOM/MA(BE)/67 and L. donovani MHOM/ET/67/L82 strains were used and the IC50-values were determined using an extended dose range (2-fold compound dilutions). […]

[4] = system: cytochrome P450 enzyme (CP1A2, 2C9, 2D6, 3A4, CYP2C19); assay: Cytochrome P450 inhibition; type: in vitro ADME; details: CP1A2, 2C9, 2D6 and 3A4
[5] = system: T. b. brucei or T. b. rhodesiense; assay: Acute Murine Model B; type: in vivo, BALB/C mice; details: after 55 days; 50 mg/kg BID IP for 5 days
Experimental: Female BALB/C mice were inoculated with 600 parasites of T. b. brucei or 10^4 parasites of T. b. rhodesiense. 24 hrs post-infection, treatment with 6-(4-chlorophenylsulfinyl)benzo[c][1,2]oxaborol-1(3H)-ol was initiated BID for 5 days at 50 mg/kg BID intraperitoneally (IP). Mice were monitored for 40-60 days for survival. After 10 days, 20% of the untreated mice were parasite free and at 20 days, 0% of the untreated mice were parasite free. After 55 days, 100% of mice treated with 6-(4-chlorophenylsulfinyl)benzo[c][1,2]oxaborol-1(3H)-ol were parasite free.

[6] = In vitro metabolism, mouse/human liver microsomes; type: in vitro ADME; details: read-out: in vitro metabolism T1/2 (Mouse/human liver microsomes)
[7] = In vitro metabolism, mouse S9; type: in vitro ADME; details: S9 fraction, read-out: in vitro metabolism T1/2 (Mouse S9)
[8] = target: P-gp transporter (Homo sapiens, UniProt P08183); assay: P-gp transporter substrate assessment; type: in vitro ADME
P-gp transporter, sequence (P08183 whole entry): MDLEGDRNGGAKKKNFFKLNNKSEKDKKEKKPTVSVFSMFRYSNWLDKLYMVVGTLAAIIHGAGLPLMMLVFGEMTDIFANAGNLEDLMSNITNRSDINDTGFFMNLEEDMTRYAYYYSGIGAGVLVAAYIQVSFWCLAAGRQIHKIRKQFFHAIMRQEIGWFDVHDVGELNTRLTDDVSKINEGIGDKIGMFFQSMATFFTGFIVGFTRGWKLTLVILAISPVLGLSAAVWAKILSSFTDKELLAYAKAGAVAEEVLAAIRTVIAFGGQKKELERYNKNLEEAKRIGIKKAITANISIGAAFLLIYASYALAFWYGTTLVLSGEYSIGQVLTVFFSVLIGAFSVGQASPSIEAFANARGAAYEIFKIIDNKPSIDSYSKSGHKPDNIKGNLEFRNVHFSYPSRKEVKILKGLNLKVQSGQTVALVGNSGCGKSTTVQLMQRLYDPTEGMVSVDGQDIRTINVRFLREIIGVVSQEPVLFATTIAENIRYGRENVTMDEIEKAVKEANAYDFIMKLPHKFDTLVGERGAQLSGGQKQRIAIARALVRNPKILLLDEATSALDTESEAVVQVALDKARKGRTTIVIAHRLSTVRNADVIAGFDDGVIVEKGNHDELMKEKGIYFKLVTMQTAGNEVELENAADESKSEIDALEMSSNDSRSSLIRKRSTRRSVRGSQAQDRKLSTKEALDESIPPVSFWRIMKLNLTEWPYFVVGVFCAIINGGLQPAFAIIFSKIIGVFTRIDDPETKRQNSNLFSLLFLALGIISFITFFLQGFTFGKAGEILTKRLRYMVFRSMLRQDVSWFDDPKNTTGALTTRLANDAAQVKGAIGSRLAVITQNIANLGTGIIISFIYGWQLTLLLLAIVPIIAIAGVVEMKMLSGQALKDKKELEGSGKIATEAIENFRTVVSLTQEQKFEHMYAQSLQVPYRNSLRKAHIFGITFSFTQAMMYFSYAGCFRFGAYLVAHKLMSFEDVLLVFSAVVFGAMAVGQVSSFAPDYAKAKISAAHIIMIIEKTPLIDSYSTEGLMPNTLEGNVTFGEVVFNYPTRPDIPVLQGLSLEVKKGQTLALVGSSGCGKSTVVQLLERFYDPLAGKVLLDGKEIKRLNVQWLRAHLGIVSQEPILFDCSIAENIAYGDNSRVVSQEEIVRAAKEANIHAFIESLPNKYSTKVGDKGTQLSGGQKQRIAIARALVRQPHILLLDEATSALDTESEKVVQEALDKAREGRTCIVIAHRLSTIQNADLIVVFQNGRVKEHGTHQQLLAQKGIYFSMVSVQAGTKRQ

Structure (SMILES): O=C(Nc1ccc2c(c1)B(O)OC2)c1ccccc1C(F)(F)F [H1, N-(1-hydroxy-1,3-dihydrobenzo[c][1,2]oxaborol-6-yl)-2-(trifluoromethyl)benzamide]
T. brucei Minimum Effective Dose ([1]; route ip): 10 mg/kg, bid × 4 days

Structure (SMILES): N=C(N)c1ccc(/N=N/Nc2ccc(C(=N)N)cc2)cc1 [Diminazene, reference compound]
day by which all animals relapsed to exhibit blood parasitemia ([2]; treated on Day 21 post-infection): ≤ 53 days

IC50 [3]: 4.3 µM
Structure (SMILES): CCCCCCCCCCCCCCCCOP(=O)([O-])OCC[N+](C)(C)C [miltefosin]

Structure (SMILES): O=C(Nc1ccc2c(c1)B(O)OC2)c1cc(F)ccc1C(F)(F)F [H17, 5-Fluoro-N-(1-hydroxy-1,3-dihydro-benzo[c][1,2]oxaborol-6-yl)-2-trifluoromethyl-benzamide]
T. brucei Minimum Effective Dose ([1]; route po): 5 mg/kg, bid × 4 days
mice parasite free for at least 60 days ([2]; additional results): 100%

inhibition of a cytochrome P450 enzyme [4]: does not inhibit
half-life [6]: > 5.83 h
Structure (SMILES): [O-][S+](c1ccc(Cl)cc1)c1ccc2c(c1)B(O)OC2 (stereo not shown) [6-(4-chlorophenylsulfinyl)benzo[c][1,2]oxaborol-1(3H)-ol]
mice parasite free [5]: 100%
mice parasite free ([1]; after 10 days, 20 mg/kg): 100%

Structure (SMILES): O=C(Nc1ccc2c(c1)B(O)OC2)c1ccc(F)cc1C(F)(F)F [H19, 4-Fluoro-N-(1-hydroxy-1,3-dihydro-benzo[c][1,2]oxaborol-6-yl)-2-trifluoromethyl-benzamide]
T. brucei Minimum Effective Dose ([1]; route po): 5 mg/kg, bid × 4 days
mice parasite free for at least 100 days ([2]; additional results): 100%

half-life [7]: 3.33 to 3.75 h
inhibition of a cytochrome P450 enzyme [4]: does not inhibit
substrate for the P-gp transporter [8]: not a substrate
half-life [6]: 5.67 to 6 h
Structure (SMILES): O=C(Nc1ccc2c(c1)B(O)OC2)c1ccccc1C(F)(F)F [N-(1-hydroxy-1,3-dihydrobenzo[c][1,2]oxaborol-6-yl)-2-(trifluoromethyl)benzamide]
mice parasite free ([1]; after 30 days, 10 mg/kg): 100%
mice with absence of blood parasites through Day 91 ([2]; 50 mg/kg BID for 7 days IP, starting at Day 21 post-infection): 70%

Structure (SMILES): O=C(Nc1ccc2c(c1)B(O)OC2)c1ccccc1Cl [H7, 2-Chloro-N-(1-hydroxy-1,3-dihydro-benzo[c][1,2]oxaborol-6-yl)-benzamide]
T. brucei Minimum Effective Dose ([1]; route po): 10 mg/kg, bid × 4 days
mice parasite free for at least 100 days ([2]; additional results): 100%
